Test results as given in patent publication US12252457B2, “Compositions and methods for reducing tactile dysfunction, anxiety, and social impairment” (President and Fellows of Harvard College, priority 2018, dated 2025).
Where two headings read alike, the source gives them in different places.

Columns and labels:
Transporter, GABA [1] = target: T1, Transporter, GABA (Rattus norvegicus, UniProt P23978); conditions: reference compound, historical value; cited from earlier work
T1 construct: tissue Eurofins Panlabs 226400; host or cells: rat brain membranes (own knowledge of the vendor's assay and of the cited Shank et al. 1990 method)

Transporter, GABA [2] = target: T1, Transporter, GABA; experiment: GABA transporter radioligand binding assay (Cat # 226400); conditions: reference compound, batch 424211; read-out: Concurrent IC50
Method: The activity of compound Compound 5 was evaluated in Radioligand Binding assays. Methods employed herein have been adapted from the scientific literature to maximize reliability and reproducibility. Reference standards were run as an integral part of each assay to ensure the validity of the results obtained. Where presented, IC50 values were determined by a non-linear, least squares regression analysis using MathIQ™ (ID Business Solutions Ltd., UK). Where inhibition constants (K) are presented, the Ki values were calculated using the equation of Cheng and Prusoff (Cheng, Y., Prusoff, W. H., Biochem. Pharmacol. 22:3099-3108, 1973) using the observed IC50 of the tested compound, the concentration of radioligand employed in the assay, and the historical values for the KD of the ligand (obtained experimentally at Eurofins Panlabs, Inc.). Where presented, the Hill coefficient (nH), defining the slope of the competitive binding curve, was calculated using MathIQ™. […] Where IC50, Ki and/or nH data are presented without Standard Error of the Mean (SEM), data are insufficient to be quantitative.
Biochemical assay results are presented as the percent inhibition of specific binding or activity. All other results are expressed in terms of the quantitation method of that assay. For primary assays, only the lowest concentration with a significant response, judged by the criteria of the assay, is shown in this summary. […] Unless otherwise requested, primary screening in duplicate with quantitative data (e.g., IC50±SEM, Ki ±SEM and nH) are shown where applicable for individual requested assays.
J Neurochem. 54:2007-2015.

[3] = system: genetic and environmental mouse models of ASD; experiment: Tactile PPI, air puff response and startle amplitude after acute midazolam or isoguvacine in ASD mouse models; assay type: in vivo; conditions: 2 mg/kg i.p.
Method: FIGS. 19A-19N show acute administration of the peripherally-restricted GABAA receptor agonist isoguvacine improves tactile hypersensitivity in five genetic and one environmental model of ASD. […] Two-way ANOVA with post-hoc Sidak's test, *, p<0.05. FIG. 19B: Response to a light air puff stimulus alone in mice following i.p. administration of either saline or 2 mg/kg midazolam treatment. Responses are expressed as percent of startle response to a 125 dB noise. Two-way ANOVA with post-hoc Sidak's test, *, p<0.05. FIG. 19C: Magnitude of startle response to a 125 dB noise in mice following i.p. administration of either saline or 2 mg/kg midazolam treatment. Responses are expressed as percent of startle response to a 125 dB noise. Two-way ANOVA with post-hoc Sidak's test, *, p<0.05. FIG. 19D: Magnitude of startle response to a 125 dB noise in mice following i.p. administration of saline, midazolam (2 mg/kg) or a peripherally-restricted GABAA receptor agonist, isoguvacine (2 mg/kg). Responses are expressed as percent of startle response to a 125 dB noise. Two-way ANOVA with post-hoc Sidak's test, *, p<0.05. FIGS. 19E-19G: Liquid chromatography mass spectrometry (LC-MS) quantified isoguvacine concentrations in cerebrospinal fluid (CSF) (FIG. 19E), blood (FIG. 19F) or liver (FIG. 19G) samples of mice treated with: i.p. saline, i.p. isoguvacine (“Iso.”, 20 mg/kg, samples collected 1, 3 or 24 hours post-injection), intracerebral injection isoguvacine (20 mg/kg, 1 hour post-injection), i.p. diazepam (“DZ”, 20 mg/kg, 1 hour post injection) or intracerebral injection diazepam (20 mg/kg, 1 hour post injection). FIG. 19H: Normalized peak chloride flux through α1β3γ2- and α2β3γ2-containing GABAA receptors in response to isoguvacine application. […] FIGS. 19I-19K: GABAA receptor subunit RNA expression levels across peripheral somatosensory neuron subtypes, for the alpha (FIG. 19I), beta (FIG. 19J), and gamma (FIG. 19K) subunit types. […] Two-way ANOVA with post-hoc Sidak's test, *, p<0.05. FIG. 19M: Response to a light air puff stimulus alone in mice following i.p. administration of either saline or 2 mg/kg isoguvacine treatment. Responses are expressed as percent of startle response to a 125 dB noise. Two-way ANOVA with post-hoc Sidak's test, *, p<0.05. FIG. 19N: Magnitude of startle response to a 125 dB noise in mice following i.p. administration of either saline or 2 mg/kg isoguvacine treatment. Responses are expressed as percent of startle response to a 125 dB noise. Two-way ANOVA with post-hoc Sidak's test, *, p<0.05.
Results of the GABAA receptor restoration experiments raised the possibility that pharmacological treatment with a GABAA receptor agonist may improve tactile reactivity in Mecp2 mutant mice. It was therefore tested whether benzodiazepines, which are positive allosteric modulators (PAMs) of GABAA receptors, would attenuate hairy skin hypersensitivity in Mecp2 mutant mice. Advillin^Cre; Mecp2^f/y mutant mice and their control littermates were administered either vehicle alone or the benzodiazepine midazolam (2 mg/kg, i.p.) in a pseudorandomized manner, and then subjected to tactile PPI. On the following day, treatment regimens were reversed, and tactile PPI was repeated.
While traditional blood-brain barrier (BBB) penetrating benzodiazepines and non-benzodiazepine GABAA receptor PAMs are useful for treating some ASD-related symptoms in patients, including acute anxiety, significant adverse effects including sedation and addictive potential are common (Gudex, 1991). Furthermore, long-term benzodiazepine use is linked to cognitive impairment across multiple domains, including short-term verbal memory and attention (Golombok et al., 1988; Tata et al., 1994), leading to general reluctance within the medical community for prescribing benzodiazepines and other GABAA receptor PAMs to young children (Howes et al., 2018). […]

Structure (SMILES) | Historical nH (Transporter, GABA [1]) | IC50 (Transporter, GABA [1]) | Ki (Transporter, GABA [1]) | IC50 (Transporter, GABA [2]) | tactile sensitivity (tactile PPI) ([3]; Advillin^Cre, Mecp2^f/y mutants and controls) | reduction in startle amplitude (sedation) ([3]; all mice, 125 dB noise)
O=C(O)C1=CCCN(CCON=C(c2ccccc2)c2ccccc2)C1 [NO-711] | 1.10 | 200 nM | 200 nM | 170 nM | – | –
Cc1ncc2n1-c1ccc(Cl)cc1C(c1ccccc1F)=NC2 [midazolam] | – | – | – | – | significantly attenuated tactile sensitivity | ~50%
